Test results reported in US20250082611A1, “DOSING REGIMEN FOR AN NLRP3 INHIBITOR IN THE TREATMENT OF OSTEOARTHRITIS” (Novartis AG, priority 2021, published 2025).
Read-outs that look alike come from different tables or passages of the source.

How the values were obtained:
[1] = in vivo
Procedure: (§1) The safety of the treatment period is supported by 13-week GLP toxicology studies in rat and cynomolgus monkey. […] Safety margins for COMPOUND IA dosed at 25 mg b.i.d. based on 13-week GLP toxicology studies: […]

in vivo = details: cynomolgus monkey
Procedure: as §1

CYP3A = test: In vitro metabolism studies, CYP3A induction and substrate; type: in vitro ADME
Excerpt: Therefore, investigators, at their discretion, may administer concomitant medications known to be metabolized by CYP3A4/5. Patients receiving such medications may require dose titration or increase of the concomitant drug. […] Investigators may, at their discretion, co-administer known inhibitors of CYP3A, but their duration should be kept as short as possible, and patients must be closely monitored.

CC(C)(O)c1ncc([S@](N)(=O)=NC(=O)Nc2c3c(cc4c2CCC4)CCC3)s1 [Compound IA, (R)-N′-((1,2,3,5,6,7-hexahydro-s-indacen-4-yl)carbamoyl)-2-(2-hydroxypropan-2-yl) thiazole-5-sulfonimidamide]
Exposure multiples RAT NOAEL based on AUC0-24 h [1]: 14
Exposure multiples RAT NOAEL based on Cmax [1]: 34
Exposure multiples RAT NOAEL based on AUC0-24 h ([1]; 25 mg): 7
Exposure multiples RAT NOAEL based on Cmax ([1]; 25 mg): 17
Exposure multiples MONKEY NOAEL based on AUC0-24 h (in vivo): 49
Exposure multiples MONKEY NOAEL based on Cmax (in vivo): 66
NOAEL at 13 weeks (in vivo): 150 mg/kg/day
Exposure multiples MONKEY NOAEL based on AUC0-24 h (in vivo; 25 mg): 61
Exposure multiples MONKEY NOAEL based on Cmax (in vivo; 25 mg): 82
CYP3A substrate status (CYP3A): substrate of CYP3A
induction of metabolism of CYP3A substrates (CYP3A): might have the potential to induce
